Assay results: US20230047313A1, “TREATING HEART DISEASE IN MUSCULAR DYSTROPHY PATIENTS” (Children`s Medical Center Corporation, priority 2019, published 2023)
Entries after “also recorded” stand apart in the source; their conditions may differ.

Legend:
Format in all cases: in vivo, mouse
[1] = tested on: Utrn/mdx dko mice; assay: Histology (Fast green/Sirius red staining) of heart sections of Utrn/mdx dko mice after Nox4 inhibitor treatment; details: 8 weeks after treatment, 60 mg/kg/day
Excerpt: (§1) Male mutation mice for both CIP and dystrophin genes (CIP-KO/mdx dko) were divided into four groups: • 1) group young control (3-month old mouse with corn oil); • 2) group young inhibitor (3-month old mouse with nox4 inhibitor); • 3) group old control (5-month old mouse with corn oil); • 4) group Old inhibitor (5-month old mouse with nox4 inhibitor) Male mutation mice for utrophin and dystrophin (c) were divided into two groups: • 1) group C: control (3-month old mouse with corn oil); • 2) group I: inhibitor (3-month old mouse with nox4 inhibitor); For all the animals in the inhibitor treatment group, the Nox4 Inhibitor (GKT137831 (SIGMA) diluted 1:100 in corn oil) was applied at the dosage of 60 mg/kg/day daily; control group was treated with corn oil only. Cardiac function was monitored using echocardiography before (pre-) and after Nox4 Inhibitor treatment at indicated times (weeks or months) and was presented as EF (ejection fraction) or FS % (fractional shortening), respectively. Utrn/mdx dko mice were sacrificed after final echocardiography measurement after 2 months. Histology was performed in the heart tissues and the expression of cardiac genes and fibronectin, a molecular marker for fibrosis, measured using real-time qPCR.

[2] = tested on: Utrn/mdx dko mice; assay: Oral gavage of Nox4 inhibitor in Utrn/mdx dko mice, cardiac function by echocardiography; details: 60 mg/kg/day daily, 2, 4 and 8 weeks, both younger and older mice
Protocol: Nox4 inhibitor GKT 137831 was purchased from MilliporeSigma and dissolved in corn oil. […] Cardiac function was monitored using echocardiography before (pre-) and after Nox4 Inhibitor treatment at indicated times (weeks or months) and was presented as EF (ejection fraction) or FS % (fractional shortening), respectively. Utrn/mdx dko mice were sacrificed after final echocardiography measurement after 2 months. Histology was performed in the heart tissues and the expression of cardiac genes and fibronectin, a molecular marker for fibrosis, measured using real-time qPCR.

[3] = tested on: CIP-KO/mdx dko mice; assay: Oral gavage of Nox4 inhibitor in CIP-KO/mdx dko mice, cardiac function by echocardiography
Excerpt: Nox4 inhibitor GKT 137831 was purchased from MilliporeSigma and dissolved in corn oil. Male mutation mice for both CIP and dystrophin genes (CIP-KO/mdx dko) were divided into four groups: • 1) group young control (3-month old mouse with corn oil); • 2) group young inhibitor (3-month old mouse with nox4 inhibitor); • 3) group old control (5-month old mouse with corn oil); • 4) group Old inhibitor (5-month old mouse with nox4 inhibitor) Male mutation mice for utrophin and dystrophin (c) were divided into two groups: • 1) group C: control (3-month old mouse with corn oil); • 2) group I: inhibitor (3-month old mouse with nox4 inhibitor); For all the animals in the inhibitor treatment group, the Nox4 Inhibitor (GKT137831 (SIGMA) diluted 1:100 in corn oil) was applied at the dosage of 60 mg/kg/day daily; control group was treated with corn oil only. Cardiac function was monitored using echocardiography before (pre-) and after Nox4 Inhibitor treatment at indicated times (weeks or months) and was presented as EF (ejection fraction) or FS % (fractional shortening), respectively. Utrn/mdx dko mice were sacrificed after final echocardiography measurement after 2 months. Histology was performed in the heart tissues and the expression of cardiac genes and fibronectin, a molecular marker for fibrosis, measured using real-time qPCR.

[4] = tested on: Utrn/mdx dko mice; assay: Quantitative real time PCR of fibronectin in hearts of Utrn/mdx dko mice after Nox4 inhibitor treatment; details: 8 weeks after treatment, 60 mg/kg/day
Excerpt: as §1

CN(C)c1cccc(-c2c3c(=O)n(-c4ccccc4Cl)[nH]c3cc(=O)n2C)c1 [GKT137831]
formation of cardiac fibrosis and scars, Fast green/Sirius red staining [1]: decreased the formation of cardiac fibrosis and the formation of scars
size of the left ventricle dimension, histological analysis [1]: reduced the size of the left ventricle dimension
cardiac function (Ejection Fraction, EF; Fractional Shortening, FS %), echocardiography [2]: preserved cardiac function
left ventricle dilation (LVID), echocardiography [2]: reduced the left ventricle dilation (LVID)
left ventricle dilation (LVID), echocardiography ([3]; CIP-KO:mdx mice, 60 mg/kg/day daily, both younger (start 3 months old) and older (start 5 months old) mice): reduced the left ventricle dilation (LVID)
cardiac function (Ejection Fraction, EF), echocardiography ([3]; CIP-KO:mdx mice, 60 mg/kg/day daily, both younger (start 3 months old) and older (start 5 months old) mice, 60 mg/kg/day): preserved cardiac function; also recorded: improves cardiac function
cardiac fibrosis ([3]; mdx/CIP-KO mice as worded in the summary sentence, 60 mg/kg/day daily): reduces cardiac fibrosis
dystrophic cardiomyopathy ([3]; mdx/CIP-KO mice, 60 mg/kg/day daily): potently ameliorated dystrophic cardiomyopathy
development of heart failure ([3]; mdx/CIP-KO mice, 60 mg/kg/day daily oral gavage, 60 mg/kg/day): preventing the development of heart failure; also recorded: potently prevents the development of heart failure
fibronectin expression in the hearts, qPCR [4]: reduced fibronectin expression
